Source: PubChem BioAssay AID1996
Converted amounts (≈) assume the structure as drawn.

Settings: buffer; pH 7.4; 200.0 µM

Row | SMILES | solubility kinetic [µg/mL]
1 | CC(=O)c1cccc(NC(=O)c2cc(=O)c3ccccc3o2)c1 | < 0.7
2 | CCOC(=O)C1C(c2ccccc2)NC(=S)NC1(C)O (stereo unspecified) | 41.6 (≈ 141 µM)
3 | Cc1ccc(-c2nc(C#N)c(NCCCn3ccnc3)o2)cc1 | 0.9 (≈ 2.93 µM)
4 | COc1cccc(OC)c1OCCN1CCCC1 | 32.4 (≈ 129 µM)
5 | Clc1ncccc1OCc1ccccc1 | 14.6 (≈ 66.5 µM)
6 | CCN1CCC(NCC2CCCCC2)CC1 | 23.2 (≈ 103 µM)
7 | CCC(=O)N(Cc1cc(=O)[nH]c2ccccc12)c1ccccc1C | 36.3 (≈ 113 µM)
8 | Cc1occc1C(=O)Nc1cnn(CCCC(=O)O)c1 | > 41.6
9 | CCc1ccc(NC(=O)CCc2ccc(CC)o2)cc1 | 4 (≈ 14.7 µM)
10 | COc1cc(NC(=O)C2CCN(c3cnccn3)CC2)cc(OC)c1 | 47.1 (≈ 138 µM)
11 | Cc1ccc(Nc2nc(-c3cccnc3)nc3ccccc23)cc1 | 0.6 (≈ 1.92 µM)
12 | O=[N+]([O-])c1ccc2nc(C3CCCCC3)[nH]c2c1 | 31.5 (≈ 128 µM)
13 | CCN1CCN(C(=O)/C=C/c2ccc(OC)c(OC)c2)CC1 | > 45.7
14 | N#Cc1c2n(c3c(N)ncnc13)CCCCC2 | 33.6 (≈ 148 µM)
15 | O=C(COC(=O)c1cccnc1Cl)c1ccc(OC(F)F)cc1 | 51.2 (≈ 150 µM)
16 | Cc1ccc(S(=O)(=O)N2CCCCC2c2cccnc2)c(C)c1C (stereo unspecified) | 45.9 (≈ 133 µM)
17 | CC(C(=O)NCC1CCCCC1)N1CCc2ccccc2C1 (stereo unspecified) | 41.9 (≈ 139 µM)
18 | Cc1ccc(SCC(=O)N2CCN(c3ccccn3)CC2)cc1 | 43.8 (≈ 134 µM)
19 | Cc1csc(SCC(=O)Nc2nccs2)n1 | > 40.7
20 | CCOC(=O)C(=CNc1cc(OC)ccc1-n1cccc1)C(=O)OCC | 1 (≈ 2.79 µM)
21 | O=C(/C=C/c1ccco1)NCc1ccc2c(c1)OCO2 | > 40.7
22 | COc1ccc(N2C(=S)NC3CS(=O)(=O)CC32)cc1 (stereo unspecified) | > 44.8
23 | Cc1ccc(S(=O)(=O)N2CCOCC2)cc1C(=O)OCC(=O)NC1CCCC1 | > 61.6
24 | O=C(NCC1CC1)Nc1cccc(Cl)c1 | > 33.7
25 | COc1ccc(NC(=S)N(Cc2cccnc2)Cc2ccco2)cc1 | 44.8 (≈ 127 µM)

Row | SMILES | solubility kinetic [µg/mL]
26 | COc1cccc(NC(=O)N2CCCC(C(=O)NC3CCCCC3C)C2)c1 (stereo unspecified) | 6.4 (≈ 17.1 µM)
27 | COc1ccc(Cl)cc1NC(=O)Cn1c(=O)oc2ccccc21 | 1.2 (≈ 3.61 µM)
28 | CC(=O)Nc1sc(C)c(C)c1C(=O)OCC(=O)Nc1cccc(C)c1 | 1.1 (≈ 3.05 µM)
29 | Cc1cc(C)c(S(=O)(=O)NCc2ccc3c(c2)OCO3)c(C)c1 | 1.7 (≈ 5.1 µM)
30 | CN(C)CCCNC(=O)c1ccccc1Oc1ccccc1 | > 44.8
31 | CN1CCN(C(=O)CNC(=O)C23CC4CC(CC(C4)C2)C3)CC1 | > 47.9
32 | N#CCSc1ncnc2ccccc12 | 28.1 (≈ 140 µM)
33 | CC(C)CN1CCN(Cc2ccc(C(F)(F)F)cc2)CC1CCO (stereo unspecified) | 45.5 (≈ 132 µM)
34 | CC12CN3CCN(CC(C3)/C1=N\NC(=O)Nc1cccc(Cl)c1)C2 | > 52.2
35 | CCOc1ccccc1OCCN1CCCC1 | 24.1 (≈ 102 µM)
36 | Cc1cc(C(=O)NCC(=O)Nc2ccc(F)c(F)c2)c(C)o1 | 11.3 (≈ 36.7 µM)
37 | O=C(C1CC(=O)N(c2ccc(F)cc2)C1)N1CCOCC1 (stereo unspecified) | 41.5 (≈ 142 µM)
38 | O=S(=O)(c1ccc(-c2ccccc2)cc1)N1CCCCC1 | < 0.6
39 | CCCC12CN3CC(C)(CN(C1)C3c1ccc([N+](=O)[O-])o1)C2=O (stereo unspecified) | > 47.9
40 | O=C(CSc1ccc([N+](=O)[O-])cn1)Nc1ccc2c(c1)OCCO2 | 0.7 (≈ 2.02 µM)
41 | CC(CC(=O)O)CC(=O)Nc1cc([N+](=O)[O-])ccc1O (stereo unspecified) | > 42.3
42 | CC1CCCCN1C(=O)CCn1c(=S)oc2ccccc21 (stereo unspecified) | 43.9 (≈ 144 µM)
43 | O=C1c2ccccc2C(=O)N1CCOc1ccccc1Cl | 3.5 (≈ 11.6 µM)
44 | Cc1noc2ncnc(N3CCCCC3)c12 | 27.8 (≈ 127 µM)
45 | Cc1ccccc1NCCC(=O)Nc1ccc(Cl)cc1 | > 43.3
46 | CCN(CC(=O)Nc1c(F)cccc1F)C(=O)c1ccc(C#N)cc1 | > 51.5
47 | O=C(NCc1ccco1)c1ccc(S(=O)(=O)N2CCCCC2)cc1 | 1.9 (≈ 5.45 µM)
48 | CC(NC(=O)c1ccc(F)cc1Cl)C1CC2CCC1C2 (stereo unspecified) | 16.6 (≈ 56.1 µM)
49 | O=C1NCCCCC1NS(=O)(=O)c1ccc(F)c(F)c1 (stereo unspecified) | 43.1 (≈ 142 µM)
50 | COC(=O)C(CO)Nc1ncnc2onc(-c3ccc(F)cc3)c12 (stereo unspecified) | > 49.8

Row | SMILES | solubility kinetic [µg/mL]
51 | O=C(O)c1c2c(nc3ccccc13)/C(=C/c1ccc(O)cc1)CCC2 | > 49.7
52 | COc1cccc(C2(C)NC(=O)N(CC(=O)Nc3ccc(N4CCOCC4)cc3)C2=O)c1 (stereo unspecified) | 57.7 (≈ 132 µM)
53 | COCc1cc(C)nc(SCC(=O)Oc2ccc(Cl)cc2)c1C#N | 9.4 (≈ 25.9 µM)
54 | COc1ccc(Cl)cc1N1C(=O)CC(N2CCN(S(=O)(=O)c3ccccc3F)CC2)C1=O (stereo unspecified) | 38.3 (≈ 79.5 µM)
55 | CC1CCCCN1C(=O)COC(=O)Cc1c[nH]c2ccccc12 (stereo unspecified) | > 47.2
56 | CC(C)c1ccc(NC(=O)CCC(=O)NCc2ccco2)cc1 | 5.1 (≈ 16.2 µM)
57 | O=C(O)CCn1c(SCCOc2ccccc2F)nc2ccccc21 | > 54.1
58 | CC(=O)CC(=O)Nc1ccc(C(N)=O)cc1 | > 33
59 | COCC(=O)Nc1cc(C)cn(Cc2ccc(F)cc2)c1=O | > 45.6
60 | Cc1nc2ccccc2c(=O)n1Cc1ccc([N+](=O)[O-])cc1 | > 44.3
61 | CN(C(=O)C1CCCCN1S(=O)(=O)c1ccccc1)c1ccccc1 (stereo unspecified) | > 53.8
62 | NC(=O)c1cccc(-c2cccc(OC(=O)NC3CCCCC3)c2)c1 | < 0.4
63 | NC(=O)c1ccc(N=C2C(=O)Nc3ccc([N+](=O)[O-])cc32)cc1 | 13.1 (≈ 42.2 µM)
64 | Cc1nc2ccc(OC(=O)c3ccccc3)cc2s1 | 2.9 (≈ 10.8 µM)
65 | Cc1cc(C)cc(NC(=O)c2ccc3c(c2)CCN3S(C)(=O)=O)c1 | 0.5 (≈ 1.45 µM)
66 | O=C(COC(=O)/C=C/c1cccc(Cl)c1)NCc1cccs1 | 6.1 (≈ 18.2 µM)
67 | Cc1cc(C(=O)CN2C(=O)NC3(CCC(C)CC3)C2=O)c(C)n1C (stereo unspecified) | 13.3 (≈ 40.1 µM)
68 | COc1cccc(NC(=O)c2cc3ccccc3o/c2=N\O)c1 | 22.2 (≈ 71.5 µM)
69 | Nc1nc(Nc2ccccc2)nc(C(F)(F)F)n1 | > 38.3
70 | Nc1c(C(=O)O)cnn1-c1ccccc1 | > 30.5
71 | CCN1CCc2nc3ccccc3c(C(=O)Nc3ccc(F)cc3)c2C1 | 8.3 (≈ 23.8 µM)
72 | O=C(Cc1ccc(Br)cc1)NCCN1CCOCC1 | > 49.1
73 | CCOc1ccc(C(=O)NCC(=O)N2CCN(Cc3ccccc3)CC2)cc1 | > 57.2
74 | Cc1cc(C)c(NC(=O)Nc2ccc3c(c2)OCO3)c(C)c1 | 0.6 (≈ 2.01 µM)
75 | COc1ccc(NC(=O)CSCC(=O)N=c2sccn2C)cc1 | 49.9 (≈ 142 µM)

Row | SMILES | solubility kinetic [µg/mL]
76 | O=C1/C(=C\c2ccsc2)N2CCC1CC2 | 21.3 (≈ 97.1 µM)
77 | CC(Oc1cccnc1[N+](=O)[O-])C(=O)N1CCc2ccccc21 (stereo unspecified) | > 47
78 | COCCSc1ccccc1C(=O)Nc1cc([N+](=O)[O-])ccc1OC | 4.1 (≈ 11.3 µM)
79 | CCN(CC)c1ccc(C=Nc2ccc(C)cc2C)c(O)c1 | 6.4 (≈ 21.6 µM)
80 | CCCc1cc(C(=O)OC)c(NC(=O)CCCC(=O)O)s1 | > 47
81 | COc1ccc(OCCN(C)CC(=O)Nc2ccccc2SC)cc1 | 21.2 (≈ 58.8 µM)
82 | O=C(Cc1ccccc1)NCC(=O)N1CCC1 | > 34.8
83 | Cc1ncc(S(=O)(=O)C(C)(C)C)c(N)n1 | 27.2 (≈ 119 µM)
84 | Cc1cccnc1NC(=O)c1ccc2c(c1)OCO2 | > 38.4
85 | COc1ccc(Nc2nc3ccccc3n2C)cc1 | 36.5 (≈ 144 µM)
86 | CCOc1ccc(N2CC(C(=O)N3CC(C)OC(C)C3)CC2=O)cc1 (stereo unspecified) | > 52
87 | Cc1nc(SCc2ccccc2)c2oc3ccccc3c2n1 | < 0.3
88 | O=C(CNS(=O)(=O)c1ccc(F)c(Cl)c1)NCCc1ccccc1 | 5.1 (≈ 13.8 µM)
89 | COc1ccc(OC)c(Nc2nc(-c3ccncc3)nc3ccccc23)c1 | < 0.2
90 | O=C1CCC(=O)N1OCCOc1ccccc1 | > 35.3
91 | CNc1ccc(S(=O)(=O)NC)cc1[N+](=O)[O-] | > 36.8
92 | O=C(CCCc1ccccc1)NCc1ccc2c(c1)OCO2 | > 44.6
93 | CC(C)[C@H](NC(=O)c1cccc(S(=O)(=O)N2CCOCC2)c1)C(=O)NCc1ccc(F)cc1 | 8 (≈ 16.8 µM)
94 | COc1cccc(/C=C/c2[nH]c(=O)[nH]c(=O)c2[N+](=O)[O-])c1O | > 45.8
95 | CCOC(=O)NC(=O)c1cn(-c2ccc(OC)cc2)c(=O)[nH]c1=O | 9.1 (≈ 27.3 µM)
96 | COc1ccccc1C(=O)NCCC(=O)NCCOc1ccccc1 | > 51.4
97 | Cc1cccc(NC(=O)CCS(=O)(=O)c2ccccc2)n1 | > 45.7
98 | CN(c1ccccc1)S(=O)(=O)c1ccc(Cl)nc1 | 40.1 (≈ 142 µM)
99 | S=C(NCc1ccc(Cl)cc1)Nc1ccncc1 | > 41.7
100 | Cc1ccc(NC(=O)c2cc3ccccc3o2)cc1 | 1.5 (≈ 5.97 µM)

Row | SMILES | solubility kinetic [µg/mL]
101 | N#Cc1c(-c2ccccc2)nc(SCc2ccc(Cl)cc2)[nH]c1=O | 51.9 (≈ 147 µM)
102 | C=CCn1c([O-])c(C(C)=O)c(=O)[nH]c1=O.C[NH+](C)C | > 40.4
103 | Nc1nc(NCCN2CCOCC2)nc(NCc2ccccc2)c1[N+](=O)[O-] | 12 (≈ 32.1 µM)
104 | CC(C)CN(C(=O)CCNC(=O)c1ccc([N+](=O)[O-])cc1)C1CCS(=O)(=O)C1 (stereo unspecified) | 57 (≈ 139 µM)
105 | CCn1ncc(-c2ccnc3cc(C(=O)O)nn23)c1C | > 40.7
106 | COc1ccccc1NC(=O)NC1CCCCCCC1 | 2.7 (≈ 9.77 µM)
107 | Cl.O=C(Nc1ncccc1Cl)c1ccc2c(c1)OCCO2 | 37
108 | O=C(NC1CCCC1)C1CC(=O)N(c2ccc(F)cc2)C1 (stereo unspecified) | 38.4 (≈ 132 µM)
109 | Nc1ccncc1N | 12.2 (≈ 112 µM)
110 | Cc1ccccc1OCC(=O)N1CCc2ccccc2C1 | 38.6 (≈ 137 µM)
111 | Cc1nn(C)c(Oc2ccccc2)c1CCNC(=O)C(C)(C)C | > 47.3
112 | CC(C)Oc1ccc(C(=O)NCCNC(=O)c2ccco2)cc1 | > 47.5
113 | CO/N=C(/COc1ccc(F)cc1)c1ccc(OC)cc1 | < 0.6
114 | Fc1ccccc1N1CCN(CCCc2ccccc2)CC1 | 19.6 (≈ 65.7 µM)
115 | O=C(NCc1csc2ccccc12)Nc1cc(Cl)cc(Cl)c1 | 2.1 (≈ 5.98 µM)
116 | OC[C@@H](O)C1OC2NC(=S)OC2C1O (stereo partly specified) | > 33.2
117 | Cc1nc(Nc2ccc(Cl)cc2)c2oc3ccccc3c2n1 | < 0.2
118 | CSc1ncccc1C(=O)NCC1CCCCC1 | 38.4 (≈ 145 µM)
119 | CNC(=O)COc1ccc(S(=O)(=O)N2CCCC2)cc1 | 40.9 (≈ 137 µM)
120 | CCOc1ccc(C(=O)OCC(=O)N2CCCC2)cc1OCC | 38.3 (≈ 119 µM)
121 | Cc1ncc([N+](=O)[O-])n1CC(=O)Nc1ccc(F)c(F)c1 | 6.4 (≈ 21.6 µM)
